Laboratory results reported in patent US8889887B2, “Pentamethine cyanine fluorescent dyes, preparation methods and uses thereof” (Dalian University of Technology, priority 2011, dated 2014).
Where “and” joins values, the source holds several entries; their conditions need not be identical. Identical values can stand only once. Counter-ions that a name gives are not always drawn.

Key:
[1] = Fluorescence lifetime in solutions with different viscosity; type: physicochemical; settings: FIG. 5A, 1 μM
Description: (§1) Firstly, DMSO solutions of 4 and 7 having a concentration of 1.0×10^−3 M were prepared, respectively. The stock solution of […] was added into 10 mL glycerol-ethanol mixture, and ultrasonicated to remove bubbles. The solution stayed for 1 hour, and then absorption and emission spectra therefore were measured by using UV-visible spectrophotometer and fluorescence spectrophotometer, and fluorescence lifetime of solution with different viscosity was detected as well. UV-visible spectrophotometer, model: Hp8453; fluorescence spectrophotometer model: FP-6500; Fluorescence lifetime equipment: Horiba Jobin Yvon Fluoromax-4-p.
(§2) Glycerol-ethanol mixture was a mixture of glycerol and ethanol, Vglycerol: Vethanol were 1:9, 2:8, 3:7, 4:6, 5:5, 6:4, 7:3, 8:2 and 9:1.

MCF-7 cells = assay: Fluorescence imaging of stained cells under laser confocal scanning microscopy; type: cell-based
Description: The compounds 4 and 7 (12 μL, 5 μM) in PBS buffer were added into a 6-well plate with incubated MCF-7 cells, and then the plate was incubated for 30 minutes in a cell incubator of 37° C. and 5% CO2. The plate was rinsed with PBS for 5 min×3 times, fresh culture medium was added thereto, and the cells were observed under laser confocal scanning microscopy (Leica, TCS-SP2, Germany). Typical region was selected, the traditional Cy5 was excited at 633 nm and 7 was excited at 514 nm, the cells were observed under oil immersion lens (1000×) for three times.
(§3) MCF-7 cells and Hela cells were inoculated on a 6-well plate and cultured for 24 hours at 37° C. and 5% CO2. Then, the dye was added in a final concentration of 5 μM, and the plate was incubated at 37° C. for 30 min. The culture medium was moved off, and the plate was rinsed with PBS for two times. Fresh culture medium 1200 μL was added and the fluorescence was excited.
as §3, with “Then, H2O2 133.3 µL was added in a final concentration of 1 mM/L, and the plate was incubated at 37° C. for 2 hours. The culture medium was moved off, and the plate was rinsed with PBS for two times. Fresh culture medium 1200 μL was added and then” for “Then,”, “μM,” for “μM, and”
MCF-7 cells and Hela cells were inoculated on a 6-well plate and cultured for 24 hours at 37° C. and 5% CO2. The culture medium was moved off, and the plate was rinsed with PBS for two times. Appropriate amount of 70% ethanol was added and then the plate was incubated at 37° C. for 30 min. Ethanol for fixing was moved off, and the plate was rinsed with PBS for two times. PBS 1200 μL was added and then the dye was added in a final concentration of 5 μM, the plate was incubated at 37° C. for 30 min and the fluorescence was excited.

[2] = UV absorption and fluorescence emission spectra in different solvents; type: physicochemical; settings: for λabs1 maximum absorption wavelength / λabs2 maximum absorption wavelength / λem1 maximum emission wavelength / λem2 maximum emission wavelength: 1 μM; for Φ1 fluorescence quantum yield / Φ2 fluorescence quantum yield: reference Rhodamine B in ethanol
Description: Firstly, stock solutions of 4 and 7 in DMSO were prepared respectively. Then sample solutions of 1 μM were prepared by diluting the mother liquors with corresponding chromatography grade solvent. UV absorption and fluorescence emission spectra of the sample solutions in different solvents were measured at room temperature, the results were shown in FIGS. 1A and 1B, respectively.

[3] = Viscosity experiments: absorption and emission spectra in glycerol-ethanol mixtures; type: physicochemical
Description: as §1, §2

fluorescence lifetime at 665 nm with increase of solution viscosity [1]: obviously elongated | Δλ1 Stokes Shift (λem1 − λabs1) ([2]; DMSO): 47 nm | Δλ2 Stokes Shift (λem2 − λabs2) ([2]; DMSO): 31 nm | Δλ3 Stokes Shift (λem2 − λabs1) ([2]; DMSO): 148 nm | ε1 molar extinction coefficient ([2]; DMSO): 45000 L/cm/mol | ε2 molar extinction coefficient ([2]; DMSO): 118200 L/cm/mol | λabs1 maximum absorption wavelength ([2]; DMSO): 522 nm | λabs2 maximum absorption wavelength ([2]; DMSO): 639 nm | λem1 maximum emission wavelength ([2]; DMSO): 569 nm | λem2 maximum emission wavelength ([2]; DMSO): 670 nm | Φ1 fluorescence quantum yield ([2]; DMSO): 0.0057 | Φ2 fluorescence quantum yield ([2]; DMSO): 0.0113 | Δλ1 Stokes Shift (λem1 − λabs1) ([2]; acetonitrile): 48 nm | Δλ2 Stokes Shift (λem2 − λabs2) ([2]; acetonitrile): 25 nm | Δλ3 Stokes Shift (λem2 − λabs1) ([2]; acetonitrile): 148 nm | ε1 molar extinction coefficient ([2]; acetonitrile): 59400 L/cm/mol | ε2 molar extinction coefficient ([2]; acetonitrile): 112000 L/cm/mol | λabs1 maximum absorption wavelength ([2]; acetonitrile): 513 nm | λabs2 maximum absorption wavelength ([2]; acetonitrile): 635 nm | λem1 maximum emission wavelength ([2]; acetonitrile): 561 nm | λem2 maximum emission wavelength ([2]; acetonitrile): 661 nm | Φ1 fluorescence quantum yield ([2]; acetonitrile): 0.0017 | Φ2 fluorescence quantum yield ([2]; acetonitrile): 0.0019 | Δλ1 Stokes Shift (λem1 − λabs1) ([2]; dichloromethane): 56 nm | Δλ2 Stokes Shift (λem2 − λabs2) ([2]; dichloromethane): 16 nm | Δλ3 Stokes Shift (λem2 − λabs1) ([2]; dichloromethane): 160 nm | ε1 molar extinction coefficient ([2]; dichloromethane): 49700 L/cm/mol | ε2 molar extinction coefficient ([2]; dichloromethane): 113500 L/cm/mol | λabs1 maximum absorption wavelength ([2]; dichloromethane): 512 nm | λabs2 maximum absorption wavelength ([2]; dichloromethane): 656 nm | λem1 maximum emission wavelength ([2]; dichloromethane): 568 nm | λem2 maximum emission wavelength ([2]; dichloromethane): 672 nm | Φ1 fluorescence quantum yield ([2]; dichloromethane): 0.0016 | Φ2 fluorescence quantum yield ([2]; dichloromethane): 0.006 | Δλ1 Stokes Shift (λem1 − λabs1) ([2]; ethanol): 56 nm | Δλ2 Stokes Shift (λem2 − λabs2) ([2]; ethanol): 27 nm | Δλ3 Stokes Shift (λem2 − λabs1), pseudo-Stokes Shift ([2]; ethanol): 158 nm | ε1 molar extinction coefficient ([2]; ethanol): 53100 L/cm/mol | ε2 molar extinction coefficient ([2]; ethanol): 125600 L/cm/mol | λabs1 maximum absorption wavelength ([2]; ethanol): 510 nm | λabs2 maximum absorption wavelength ([2]; ethanol): 641 nm | λem1 maximum emission wavelength ([2]; ethanol): 566 nm | λem2 maximum emission wavelength ([2]; ethanol): 668 nm | Φ1 fluorescence quantum yield ([2]; ethanol): 0.0022 | Φ2 fluorescence quantum yield ([2]; ethanol): 0.0048 | sensitivity to solvent polarity ([2]; low-viscosity solvents of different polarity): insensitive to solvent polarity | Δλ1 Stokes Shift (λem1 − λabs1) ([2]; methanol): 59 nm | Δλ2 Stokes Shift (λem2 − λabs2) ([2]; methanol): 25 nm | Δλ3 Stokes Shift (λem2 − λabs1) ([2]; methanol): 156 nm | ε1 molar extinction coefficient ([2]; methanol): 49000 L/cm/mol | ε2 molar extinction coefficient ([2]; methanol): 122000 L/cm/mol | λabs1 maximum absorption wavelength ([2]; methanol): 509 nm | λabs2 maximum absorption wavelength ([2]; methanol): 636 nm | λem1 maximum emission wavelength ([2]; methanol): 568 nm | λem2 maximum emission wavelength ([2]; methanol): 665 nm | Φ1 fluorescence quantum yield ([2]; methanol): 0.0022 | Φ2 fluorescence quantum yield ([2]; methanol): 0.0031 | absorption peak, longer wavelength ([2]; solvent not stated): 655 nm | absorption peak, shorter wavelength ([2]; solvent not stated): 510 nm | emission peak, longer wavelength ([2]; solvent not stated): 668 nm and 665 nm | emission peak, shorter wavelength ([2]; solvent not stated): 565 nm | Δλ1 Stokes Shift (λem1 − λabs1) ([2]; water): 50 nm | Δλ2 Stokes Shift (λem2 − λabs2) ([2]; water): 28 nm | Δλ3 Stokes Shift (λem2 − λabs1) ([2]; water): 135 nm | ε1 molar extinction coefficient ([2]; water): 31000 L/cm/mol | ε2 molar extinction coefficient ([2]; water): 52400 L/cm/mol | λabs1 maximum absorption wavelength ([2]; water): 520 nm | λabs2 maximum absorption wavelength ([2]; water): 627 nm | λem1 maximum emission wavelength ([2]; water): 570 nm | λem2 maximum emission wavelength ([2]; water): 655 nm | Φ1 fluorescence quantum yield ([2]; water): 0.0006 | Φ2 fluorescence quantum yield ([2]; water): 0.0028 | UV absorption with variation of solution viscosity ([3]; FIG. 4A, 1 μM): kept constant | sensitivity of fluorescence intensity to solvent viscosity ([3]; glycerol-ethanol mixtures): quite sensitive to solvent viscosity
SMILES: CCN1/C(=C/C=C(C=C(C#N)C#N)/C=C/C2=[N+](CC)c3ccccc3C2(C)C)C(C)(C)c2ccccc21 [compound 7, 1,5-di(1-N-ethyl-3,3-dimethyl-2,3-H— lindoline)-3-(2,2-dicyanovinyl)-1,3,5-pentatriene chloride quaternary ammonium salt cyanine dye]
ratio value of fluorescence (red 665 / green 565 nm channel) (MCF-7 cells; MCF-7 cells stood 4 hours at room temperature after incubation (dying)): ratio value of the probe was between (1) and (2) | ratio value of fluorescence (red 665 / green 565 nm channel) (MCF-7 cells; MCF-7 cells treated with hydrogen peroxide (1 mM), apoptosis induced): ratio value was increased | ratio value of fluorescence (red 665 / green 565 nm channel) (MCF-7 cells; normal live MCF-7 cells, 5 μM, 30 minutes): ratio value was small
